Reference: patent US12371676B2, “Circularly permutated haloalkane transferase fusion molecules” (MAX-PLANCK-GESELLSCHAFT ZUR FÖRDERUNG DER WISSENSCHAFTEN E. …, priority 2019, dated 2025)
No end group written: not given here.

How the values were obtained:
HaloTag7D106A [1] = molecular target: T1, HaloTag7D106A (Rhodococcus rhodochrous, UniProt P0A3G2, A155T/A167V/A172T/A224E/C128F/C176G/D106A/D78G/E160K/E257K/H272N/K175M/K195N/L47V/L88M/N227D/P291S/S2A/S58T/T264A/Y273L/Y87F); assay: Fluorescence intensity based binding assay of fluorogenic HaloTag ligands; conditions: 25 nM fluorogenic dye
T1 construct: made in house
T1 sequence (P0A3G2 other isoform, or with tags, fused parts or gaps with the stated changes): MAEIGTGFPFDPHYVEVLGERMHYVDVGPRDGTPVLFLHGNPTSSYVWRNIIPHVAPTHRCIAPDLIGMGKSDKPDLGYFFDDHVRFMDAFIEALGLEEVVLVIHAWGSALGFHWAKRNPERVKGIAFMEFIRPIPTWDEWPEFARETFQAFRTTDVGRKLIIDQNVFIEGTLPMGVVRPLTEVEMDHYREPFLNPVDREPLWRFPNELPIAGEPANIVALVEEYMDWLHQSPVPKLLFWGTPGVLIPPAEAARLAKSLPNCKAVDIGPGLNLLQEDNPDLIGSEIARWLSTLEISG
Experimental: FIG. 3 Affinities of fluorogenic HaloTag™ ligands to HaloTag7D106A: The catalytically dead variant HaloTag7D106A was titrated against 3 different fluorogenic HaloTag™ ligands at 25 nM in a fluorescence intensity based binding assay (Halo-Siliconrhodamine, Halo-Janelia Fluor 646 and Halo-Janelia Fluor 635). Structures of the fluorogenic ligands are shown in each graph. Data were fitted to a one-site binding model and derived Kd values are shown in the graph. Due to the low affinity of the fluorogenic substrates, data points at […] were extrapolated based on fully labelled Halo Tag™ 7 (resembling complete binding) to improve fitting. Data points at 1 nM correspond to values without any protein added, but were placed at low concentrations to appear on the logarithmic scale. All experiments were performed in triplicates, error bars and annotated uncertainties represent standard deviations.
(§1) The inventors decided to perform the experiment with some representative fluorescent HaloTag™ substrates. An exchange of the aspartate106 residue in the active site by an alanine, removes the nucleophile responsible for the self labeling reaction and eliminates the catalytic activity of the protein. Catalytically dead mutants of HaloTag™ 7 (HaloTag™ 7D106A) and cpHaloΔ9mer (cpHalo_9merD106A) were generated to measure substrate affinities without displacement of the equilibrium by the enzymatic reaction.
(§2) Affinities for the different fluorescent substrates towards HaloTag™ 7D106A were determined in an FP binding assay (FIG. 2), while affinities of fluorogenic silcon-rhodamine derived substrates were measured by a fluorescence intensity based binding assay (FIG. 3), since binding of the fluorogenic ligands by HaloTag™ 7 engenders a strong increase of fluorescence. In both cases Halo Tag7D106A concentrations ranging from 0 μM to 100 μM were titrated against 25 nM of dye. […] The observed affinities are in agreement with labelling kinetics recorded with different substrates (data not shown). […]

HaloTag7D106A [2] = molecular target: T1, HaloTag7D106A; assay: FP binding assay of fluorescent HaloTag ligands
Experimental: FIG. 2 Affinities of fluorescent Halo Tag™ ligands to HaloTag7D106A: The catalytically dead variant HaloTag7D106A was titrated against 5 different fluorescent HaloTag™ ligands at 25 nM in an FP binding assay (Halo-carbopyronine, Halo-TMR, Halo-TMR-azetidine, Halo-Oregon Green™, Halo Alexa Fluor™ 488). Structures of the fluorescent ligands are shown in each graph. Data points at 0.1 nM and 1 nM correspond to values without any protein added, but were placed at low concentrations to appear on the logarithmic scale. All experiments were performed in triplicates, error bars and annotated uncertainties represent standard deviations.
as §1
Affinities for the different fluorescent substrates towards HaloTag™ 7D106A were determined in an FP binding assay (FIG. 2), while affinities of fluorogenic silcon-rhodamine derived substrates were measured by a fluorescence intensity based binding assay (FIG. 3), since binding of the fluorogenic ligands by HaloTag™ 7 engenders a strong increase of fluorescence. In both cases Halo Tag7D106A concentrations ranging from 0 μM to 100 μM were titrated against 25 nM of dye. […] The observed affinities are in agreement with labelling kinetics recorded with different substrates (data not shown). In general, fluorogenic substrates have lower affinities to HaloTag7D106A than non-fluorogenic substrates, except for Halo-Alexa Fluor™ 488 that features an affinity in the same range. Additionally, within the Silicon rhodamine derivatives the presence of an azetidine or 3-fluoroazetidine moiety has an influence on the binding affinity which is more pronounced compared to the rhodamine structure. Affinities of fluorescent HaloTag™ ligands presenting the best affinities for HaloTag™ 7 were tested with cpHaloΔ9merD106A in an FP binding assay and results were compared to the measurements with HaloTag7D106A (FIG. 4, table 1).

cpHaloΔ9merD106A = cpHaloΔ9merD106A (Rhodococcus rhodochrous, UniProt P0A3G2, A167V/A172T/A224E/A292T/C128F/C176G/D106A/D78G/E160K/E257K, form not given/H272N/K175M/K195N/L47V/L88M/N227D/P291S/S58T/T264A/Y273L/Y87F); assay: FP binding assay of fluorescent HaloTag ligands; conditions: 25 nM dye
Chain of cpHaloΔ9merD106A (P0A3G2 other isoform, or with tags, fused parts or gaps with the stated changes, form open): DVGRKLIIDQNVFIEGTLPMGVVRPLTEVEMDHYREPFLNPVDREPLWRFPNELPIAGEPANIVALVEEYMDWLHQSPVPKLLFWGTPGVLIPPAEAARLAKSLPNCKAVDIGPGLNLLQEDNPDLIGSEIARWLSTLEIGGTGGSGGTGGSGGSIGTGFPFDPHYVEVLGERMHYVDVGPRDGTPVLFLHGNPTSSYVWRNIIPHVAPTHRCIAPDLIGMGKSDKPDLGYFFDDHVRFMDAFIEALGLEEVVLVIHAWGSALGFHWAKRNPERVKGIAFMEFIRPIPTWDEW
Experimental: FIG. 4 Comparison of HaloTag™ 7D106A and cpHaloΔ9merD106A fluorescent substrate binding: The catalytically dead variant […] (blue) was titrated against 3 different fluorescent Halo Tag™ ligands at 25 nM in an FP binding assay (Halo-TMR, Halo-TMR-azetidine and Halo-carbopyronine). Structures of the respective fluorescent ligands are shown above each graph. Data were fitted to a one-site binding model and derived Kd values are shown in the graphs. Data points at 0.01 nM and 0.1 nM correspond to values without any protein added, but were placed at low concentrations to appear on the logarithmic scale. Data were compared to HaloTag™ 7D106A binding of the same fluorophores (red). Differences in binding affinity are indicated by the relative fold change of Kd values. All experiments were performed in triplicate, error bars represent standard deviations.
as §1, §2

cpHaloΔ9mer = molecular target: T2, cpHaloΔ9mer (Rhodococcus rhodochrous, UniProt P0A3G2, C128F/D78G/L47V/L88M/S58T/Y87F); assay: Background labelling of cpHaloΔ9mer by in gel fluorescence; format: biochemical; conditions: cpHaloΔ9mer 1 μM, 2 μM fluorescent ligand, 37° C.
T2 construct: made in house
T2 sequence (P0A3G2 other isoform, or with tags, fused parts or gaps L47V/S58T/D78G/Y87F/L88M/C128F): as the sequence (P0A3G2 other isoform, or with tags, fused parts or gaps with the stated changes, form open) above, with A258D counted along it
Experimental: FIG. 5 Background labeling of cpHaloΔ9mer: Background labeling of cpHaloΔ9mer (1 μM) in presence of 2 μM fluorescent ligands (at 37° C.) was determined via in gel fluorescence measurements. Samples were denatured and analysed via SDS-PAGE followed by in gel fluorescence scanning (top; gel is represented in false colors to highlight dim bands). Intensities were normalized to Halo Tag™ 7 labeled with the respective fluorophore (bottom).
A well performing protein complementation assay requires a low background. The inventors thus measured the extent of background labelling of cpHaloΔ9mer with different fluorophores (Halo-TMR, Halo-CPY and Halo-SiR). Therefore, cpHaloΔ9mer was incubated with an excess of the different fluorescent ligands.
The labelling efficiency at 37° C. and at different time points was determined via in gel fluorescence measurements (FIG. 5). […] These findings are in accordance to fluorescent ligand affinities (FIG. 4). Indeed, Halo-CPY has the highest affinity to cpHaloΔ9mer and already presents some affinity for the ligand at 2 μM engendering a labelling which still remains marginal considering the experimental setup.

physchem = conditions: pH 7.3

Compound	Kd (HaloTag7D106A [1]) [µM]	Kd (HaloTag7D106A [2]) [µM]	Kd (cpHaloΔ9merD106A) [µM]	background labelling of cpHaloΔ9mer (cpHaloΔ9mer)	other results
C[Si]1(C)C2=CC(=[N+]3CC(F)C3)C=CC2=C(c2cc(C(=O)NCCOCCOCCCCCCCl)ccc2C(=O)O)c2ccc(N3CC(F)C3)cc21 (stereo not drawn) [1-(10-(2-carboxy-5-((2-(2-((6-chlorohexyl)oxy)ethoxy)ethyl)carbamoyl)phenyl)-7-(3-fluoroazetidin-1-yl)-5,5-dimethyldibenzo[b,e]silin-3(5H)-ylidene)-3-fluoroazetidin-1-ium]	172				
N=c1ccc2c(-c3cc(C(=O)NCCOCCOCCCCCCCl)ccc3C(=O)O)c3ccc(N)c(S(=O)(=O)O)c3oc-2c1S(=O)(=O)O [Halo-Alexa Fluor 488, 6-amino-9-(2-carboxy-5-((2-(2-((6-chlorohexyl)oxy)ethoxy)ethyl)carbamoyl)phenyl)-3-iminio-3H-xanthene-4,5-disulfonate]					Kd (HaloTag7D106A [2]; HaloTag7D106A, FP binding assay, 25 nM dye, one-site binding model, read-out: Kd): 94 µM
O=C(NCCOCCOCCCCCCCl)c1ccc(C(=O)O)c(-c2c3cc(F)c(=O)cc-3oc3cc(O)c(F)cc23)c1 [Halo-Oregon Green, 4-((2-(2-((6-chlorohexyl)oxy)ethoxy)ethyl)carbamoyl)-2-(2,7-difluoro-6-hydroxy-3-oxo-3H-xanthen-9-yl)benzoic acid]		39.6			
CN(C)c1ccc2c(c1)C(C)(C)C1=CC(=[N+](C)C)C=CC1=C2c1cc(C(=O)NCCOCCOCCCCCCCl)ccc1C(=O)[O-] [Halo-carbopyronine, N-(10-(2-carboxy-5-((2-(2-((6-chlorohexyl)oxy)ethoxy)ethyl)carbamoyl)phenyl)-7-(dimethylamino)-9,9-dimethylanthracen-2(9H)-ylidene)-N-methylmethanaminium]		0.622	90.5	slightly stronger background labelling	
CN(C)c1ccc2c(c1)[Si](C)(C)C1=CC(=[N+](C)C)C=CC1=C2c1cc(C(=O)NCCOCCOCCCCCCCl)ccc1C(=O)O [Halo-silicon-rhodamine, N-(10-(2-carboxy-5-((2-(2-((6-chlorohexyl)oxy)ethoxy)ethyl)carbamoyl)phenyl)-7-(dimethylamino)-5,5-dimethyldibenzo[b,e]silin-3(5H)-ylidene)-N-methylmethanaminium]	22.7			Very low background labelling	
C[Si]1(C)C2=CC(=[N+]3CCC3)C=CC2=C(c2cc(C(=O)NCCOCCOCCCCCCCl)ccc2C(=O)O)c2ccc(N3CCC3)cc21 [Halo-silicon-rhodamine-azetidine (JF646), 1-(7-(azetidin-1-yl)-10-(2-carboxy-5-((2-(2-((6-chlorohexyl)oxy)ethoxy)ethyl)-carbamoyl)phenyl)-5,5-dimethyldibenzo[b,e]silin-3(5H)-ylidene)azetidin-1-ium]	54.6				
CN(C)c1ccc2c(-c3cc(C(=O)NCCOCCOCCCCCCCl)ccc3C(=O)[O-])c3ccc(=[N+](C)C)cc-3oc2c1 [Halo-tetramethylrhodamine, N-(9-(2-carboxy-5-((2-(2-((6-chlorohexyl)oxy)ethoxy)ethyl)carbamoyl)phenyl)-6-(dimethylamino)-3H-xanthen-3-ylidene)-N-methylmethanaminium]		6.68	115	Very low background labelling	
O=C(NCCOCCOCCCCCCCl)c1ccc(C(=O)[O-])c(-c2c3ccc(=[N+]4CCC4)cc-3oc3cc(N4CCC4)ccc23)c1 [Halo-tetramethylrhodamine-azetidine, 1-(6-(azetidin-1-yl)-9-(2-carboxy-5-((2-(2-((6-chlorohexyl)oxy)ethoxy)ethyl)carbamoyl)-phenyl)-3H-xanthen-3-ylidene)azetidin-1-ium]		4.4	227		
ARETFQAFR [9mer peptide]					solubility (physchem): ~30 mM
